Measured values as given in patent US7498445B2, “Thiazole-based nitric oxide donors capable of releasing two or more nitric oxide molecules and uses thereof” (priority 2004, dated 2009).
Entries after “also recorded” stand apart in the source; their conditions may differ.

Legend:
[1] = test system: c-GMP in slices of thoracic aorta of rats; test: Cyclic-GMP measurement in aortic rat tissue (radioimmunoassay); type: cell-based; details: in words; for levels of cGMP as compared with GTN: isolated rat aorta, FIGS. 25, 27, 33
Protocol: GTN (10^−6 M) was added to the chamber and, 1 minute after exposure to the drug, rings (usually 3-5) were taken, wrapped with aluminum foil and immediately frozen in liquid nitrogen for storage. Control sample group was treated with the vehicle solution only. At the time of analysis, rings were thawed, blotted over a dry gauzed and weighted. A known weight of tissue was homogenized in 2 ml ice-cold modified Hank's balanced salt solution containing (in gram/liter) NaCl 8; KCl 0.4; glucose 1; KH2PO4 0.06; Na2HPO4 0.047; Phenol red 0.017 and further containing 25 mM EDTA (disodium salt). The homogenate was centrifuged at 4000 g (force units) for 10 minutes at 2-4° C. and the supernatant was thereafter transferred into fresh pre-cooled test tube containing 1 ml of acetonitrile. The tubes were vortex mixed for a few seconds and subsequently centrifuged at 4000 g for 5 minutes at 2-4° C., to remove the precipitated protein. Each supernatant was transferred into a clean test tube and evaporated to dryness under a stream of nitrogen at 55° C. The dry residue was reconstituted with 10 volumes of Tris-EDTA buffer pH 7.5 (0.05 M Tris containing 4 mM EDTA). Aliquots of 100 μl of the reconstituted solution in duplicate were used for c-GMP measurements using Amersham RIA kit, as is described in Haj-Yehia & Benet [Pharmacology, 1995, 273, 1, pp. 94-100]. Standard curves were plotted with six concentrations (0, 0.5, 1, 2, 4 and 8 pmoles of c-GMP per tube).
The NO-tolerance effect of GTN and NO-donor compounds according to the present invention was measured by following the production of c-GMP in slices of thoracic aorta of rats. Thus, the production of c-GMP was measured as described in the methods section above for the reference NO-donor compound GTN, and for the NO-donors of the present invention Pet-2, Pet-3, Pet-7, Pet-8, Pet-10, Pet-12, Pet-24, Pet-59, Pet-147, Pet-149, Pet-152, Pet-154 and Pet-155.

isolated rat aorta [2] = test: In vitro vasorelaxation of epinephrine-contracted rat aortic rings (CCRC); type: cell-based; details: isolated rat aorta pre-treated in vitro with 1 μM epinephrine; for vasorelaxation effect as compared with glyceryltrinitrate: in words
From the text: Male Sprague Dawley rats were anaesthetized using intraperitoneal injection of ketamine and xylazine (50 and 10 milligram per kilogram, respectively) and the thoracic aorta, the large upper portion of the descending aorta, starting at the caudal border of the chest bone, was removed thereafter, while carefully removing the paraadventetial tissue surrounding the vessel. Aortae were cut into rings of 4-5 millimeters and mounted onto the tissue path. The path buffer (Krebs-bicrbonate) was constantly gassed with carbogen and maintained at 37° C. The rings were preloaded under 2 g tension and equilibrated for 90 minutes, while refreshing the buffer every 15 minutes. After stabilization, the rings were contracted with epinephrine (1 μM). Cumulative Concentration—Response Curves (CCRC) were measured for the vasorelaxing effect induced by adding various concentrations, ranging from 10^−10 M to 10^−5 M of Pet-2, Pet-3, Pet-7, Pet-8, Pet-12, Pet-24, Pet-43, Pet-59, Pet-147, Pet-152 and Pet-154, and glyceryltrinitrate (GTN), according to the procedure described in Feelich et al., Molecular Pharmacology, 56:243-253 (1999), The vehicle, which was used for this experiment was water:ethanol:propyleneglycol at proportional ratio of 1:1:1.
The vasorelaxing effect of the thiazole-derived NO-donors according to the present invention was measured on slices of thoracic aorta of rats contracted with epinephrine, as described hereinabove.

isolated rat aorta [3] = test: In vitro induction of tolerance and cross-tolerance: vasorelaxation of pre-exposed rat aortic rings; type: cell-based; details: in words; for tolerance induction in vitro: rings pre-treated with epinephrine and then with the same compound (0.44 mM) versus control
Protocol: Aortic rings were prepared as described hereinabove, and were exposed to 0.44 mM GTN (vehicle was water:ethanol:propyleneglycol at proportional ratio of 1:1:1) for 1 hour before CCRC construction, to thereby induce tolerance to nitroglycerine. At the end of the tolerance induction period, rings were thrice washed with the path buffer (Krebs-bicrbonate) every 15 minutes for the following hour and then CCRC for vasorelaxation on GTN-induced tolerance rings were constructed for GTN (pretreated versus untreated rings, FIG. 15), in order to verify the ability to induce and measure GTN tolerance induction in vitro Attempted induction of tolerance to the NO-donating compounds of the present invention was performed under the same conditions as for GTN. Thus, in an exemplary experiment, rings were exposed to 0.44 mM solution of Pet-3 in the attempt to induce tolerance for Pet-3. CCRC were then measured for the vasorelaxing effect of Pet-3 on a group of rings which were pre-exposed to Pet-3 as to induce tolerance to Pet-3, and for an untreated control group. The above protocol was repeated with Pet-2, Pet-7, Pet-8, Pet-12, Pet-24, Pet-43, Pet-149 and Pet-152.
Cross-tolerance studies were conducted using the same technique described above for measuring vasorelaxation of aortic rings from rats. Two groups of aortic rings samples were pre-treated with GTN, then one group was measured for vasorelaxation by GTN and the second group for vasorelaxation by Pet-12, an exemplary NO-donor according to the present invention. For the opposite cross-tolerance studies, two groups of aortic rings samples were pre-treated with Pet-12, then one group was measured for vasorelaxation by GTN and the second group for vasorelaxation by Pet-12.

[4] = test system: cyclic-GMP in isolated aorta of rats pre-treated in vivo; test: Induction of in vivo nitrate tolerance: cGMP in aorta of rats infused for 16 hours; set-up: species or system rat; details: rats infused 200 μg/hour for 16 hours, aorta then exposed to 1 μM; in words
Protocol: For c-GMP levels and tolerance development, the rat's thoracic aorta was isolated after exposure to the tested compound in vivo, and measured as described above in the in vitro assays.
Male Sprague Dawley rats (220 to 250 grams) were housed under constant temperature and humidity conditions. Light was maintained at a 12/12 light dark cycle. Except for 12 hours before the experiment, when food fasting was initiated, all rats had free access to standard rat pellet diet and tap water. The animals were anesthetized by intraperitoneal injection of ketamine and xylazine combination (50 and 10 milligram per kilogram, respectively). […] The catheters were filled with normal saline solution containing 1000 IU/ml of heparin and plugged with a metal pin. Catheters were externalized to the back of the neck region and secured by a polyester felt disk.
After implantation, the rats were individually housed until they regained their preoperative weight and appeared healthy (3 to 4 days post-operation). At this time point (day 0), an osmotic mini-pump (Alza Corp., Palo Alto, Calif.) delivering constant volume (10 μl/hour) of vehicle or drug was connected to one of the intravenous catheters.
For inducing tolerance to the tested NO-donor according to the present invention, the animals received 200 μg/hour of the tested compound for 16 hours (short-term-induced tolerance). […]

[5] = test system: anesthetized hypertensive Sprague-Dawley male rats; test: Hypotensive effects: mean arterial pressure after iv bolus in phenylephrine-treated rats; type: in vivo, rat; details: rats pre-treated with phenylephrine, in words
Protocol: Mean arterial pressure (MAP) was monitored and determined during bolus infusion of Pet-2, Pet-3, Pet-7, Pet-8, Pet-12 and Pet-13. Briefly, polyethylene catheters (PE50) were inserted into the carotid artery and into the jugular vein of anesthetized hypertensive Sprague-Dawley male rats (200-300 grams). A blood pressure recorder was placed within the carotid artery. Phenylephrine (0.1 mg) was then injected and the mean arterial blood pressure (MABP) was monitored continuously until a stable baseline was reached. The hypotensive effects of intravenous (iv) bolus doses (0.1 mg of each tested compound) administered intravenously at the jugular vein in minimal volume of vehicle (0.2 ml per dose) were evaluated. Five minutes were allowed between each dose, during which the maximal decrease in MAP was recorded and a dose-response graph comparing the hypotensive effect of the compounds was constructed.

| SMILES | levels of cGMP as compared with GTN [1] | vasorelaxation effect as compared with glyceryltrinitrate (isolated rat aorta [2]) | tolerance induction in vitro (isolated rat aorta [3]) | also measured |
| --- | --- | --- | --- | --- |
| Cc1nc(-c2ccccc2)sc1CCO[N+](=O)[O-] [Pet-8, 4-Methyl-5-(2-nitrooxy-ethyl)-2-phenyl-thiazole] | increased levels of cGMP | superior vasorelaxation effect |  |  |
| Cc1nc(Nc2cccc3ccccc23)sc1CCO[N+](=O)[O-] [Pet-149, [4-Methyl-5-(2-nitrooxy-ethyl)-thiazol-2-yl]-naphthalen-1-yl-amine] | increased levels of cGMP | superior vasorelaxation effect | absence of tolerance induction |  |
| Cc1nc(-c2cccnc2)sc1CCO[N+](=O)[O-] [Pet-12, 3-[4-Methyl-5-(2-nitrooxy-ethyl)-thiazole-2-yl]-pyridine] |  |  | absence of tolerance induction | cross-tolerance: vasorelaxation in rings pre-treated with GTN (isolated rat aorta [3]; rat aortic rings pre-treated with epinephrine and then with GTN): absence of tolerance induction effect; also recorded: no effect; cross-tolerance: vasorelaxation in rings pre-treated with Pet-12 (isolated rat aorta [3]; rat aortic rings pre-treated with epinephrine and then with Pet-12): absence of tolerance induction effect; also recorded: does not evoke tolerance to itself not to GTN; level of cGMP following a repeated treatment in vivo (tolerance induction) [4]: absence of tolerance induction; also recorded: lack of tolerance induction |
| CCNc1nc(C)c(CCO[N+](=O)[O-])s1 [Pet-147, Ethyl-[4-methyl-5-(2-nitrooxy-ethyl)-thiazol-2-yl]-amine] | increased levels of cGMP |  |  |  |
| Cc1nc(Nc2nc(C)c(CCO[N+](=O)[O-])s2)sc1CCO[N+](=O)[O-] [Pet-43, Bis-[4-methyl-5-(2-nitrooxy-ethyl)-thiazol-2-yl]-amine] |  | superior vasorelaxation effect | absence of tolerance induction |  |
| O=[N+]([O-])OCC(CO[N+](=O)[O-])O[N+](=O)[O-] [GTN, glyceryl trinitrate, reference compound] |  |  | tolerance induced by treatment with GTN | hypotensive effect on MAP following successive administrations [5]: attenuation in its effect on MAP; c-GMP level following a repeated treatment ([1]; thoracic aorta of rats): significantly reduced; level of cGMP following a repeated treatment in vivo (tolerance induction) [4]: tolerance inducing effect; also recorded: decreased |
| CNc1cncc(-c2nc(C)c(CCO[N+](=O)[O-])s2)n1 [Pet-24, Methyl-{6-[4-methyl-5-(2-nitrooxy-ethyl)-thiazol-2-yl]-pyrazin-2-yl}-amine] | increased levels of cGMP |  | absence of tolerance induction |  |
| C=CCNc1nc(C)c(CCO[N+](=O)[O-])s1 [Pet-155, allyl-[4-methyl-5-(2-nitrooxy-ethyl)-thiazol-2-yl]-amine] | increased levels of cGMP | superior vasorelaxation effect |  |  |
| Cc1nc(NC(=O)[C@@H](C)c2ccc(CC(C)C)cc2)sc1CCO[N+](=O)[O-] (stereo in doubt) [Pet-152, 2-(4-Isobutyl-phenyl)-N-[4-methyl-5-(2-nitrooxy-ethyl)-thiazol-2-yl]-propionamide] | increased levels of cGMP | superior vasorelaxation effect |  |  |
| Cc1nc(C)c(CCO[N+](=O)[O-])s1 [Pet-3, 2,4-Dimethyl-5-(2-nitrooxy-ethyl)-thiazole] | increased levels of cGMP | superior vasorelaxation effect | absence of tolerance induction |  |
| Cc1nc(N)sc1CCO[N+](=O)[O-] [Pet-10, 4-methyl-5-(2-nitrooxy-ethyl)-thiazole-2-ylamine] | increased levels of cGMP |  |  |  |
| Cc1nc(-c2ccc(C(F)(F)F)cc2)sc1CCO[N+](=O)[O-] [Pet-59, 4-Methyl-5-(2-nitrooxy-ethyl)-2-(4-trifluoromethyl-phenyl)-thiazole] | increased levels of cGMP | superior vasorelaxation effect |  |  |
| Cc1nc(NC(=O)c2cccnc2)sc1CCO[N+](=O)[O-] [Pet-154, N-[4-methyl-5-(2-nitrooxy-ethyl)-thiazol-2-yl]-nicotinamide] | increased levels of cGMP |  |  |  |
| Cc1nc(N(C)C)sc1CCO[N+](=O)[O-] [Pet-7, Dimethyl-[4-methyl-5-(2-nitrooxy-ethyl)-thiazol-2-yl]-amine] | increased levels of cGMP | superior | absence of tolerance induction | vasorelaxation effect, fold higher than glyceryltrinitrate (isolated rat aorta [2]): 10 fold |
